# Results taken from patent US12257292B2, “Enhanced delivery of antioxidants for treatment of central nervous system disorders involving oxidative stress” (Beyond Barriers Therapeutics, Inc., priority 2017, dated 2025).
# Key:
# [1] = design: species or system male Sprague-Dawley rats; conditions: rat, in vivo, 20 mg/kg
# Description: (§1) In this example, a study was conducted to evaluate the pharmacokinetics of N-acetyl cysteine administered in an intranasal formulation. The study also evaluated the effectiveness on intranasally administered NAC to increase glutathione concentration in the brain.
# C13-labelled N-acetyl L-cysteine (purchased from Cambridge Isotope Laboratories) was used to prepare formulations in phosphate-buffered saline (PBS) for the study. The subjects for the study were male Sprague-Dawley rats weighing approximately 250 grams, and 39 animals were separated into four groups, as shown in Table 1. The animals in the study groups were administered either an intranasal (IN) dose or an oral (PO) dose of N-acetyl cysteine via gavage, as shown in Table 1. Group 1 and group 2 were administered one 20 μl, intranasal injection. Group 3 was administered a single oral dose of 500 μL. Group 4 was administered two separate 10 μL intranasal injections (one per nostril). […]
# Three animals from each Group were sacrificed at the established time points (0.5 hour, 1.0 hour and 2.0 hour), and whole brains from the sacrificed animals were collected for analysis. 3 animals from Group 3 were also sacrificed pre-dose and analyzed. […] Homogenates of the brain samples were prepared and analyzed, and glutathione (GSH) levels in the brain samples were measured by LC/MS.
# [2] = system: glutathione in the brain; test: Glutathione (GSH) levels in whole-brain homogenates by LC/MS after intranasal or oral NAC; type: in vivo, male Sprague-Dawley rats; conditions: for glutathione in the brain compared to vehicle control (IN PBS): 0.5 hours and 2 hours following administration
# Description: as §1
# C13-labelled N-acetyl L-cysteine (purchased from Cambridge Isotope Laboratories) was used to prepare formulations in phosphate-buffered saline (PBS) for the study. The subjects for the study were male Sprague-Dawley rats weighing approximately 250 grams, and 39 animals were separated into four groups, as shown in Table 1. The animals in the study groups were administered either an intranasal (IN) dose or an oral (PO) dose of N-acetyl cysteine via gavage, as shown in Table 1. Group 1 and group 2 were administered one 20 μl, intranasal injection. Group 3 was administered a single oral dose of 500 μL. Group 4 was administered two separate 10 μL intranasal injections (one per nostril).
# The animals were fasted the night prior to the study and were anesthetized using a cocktail of ketamine/xylazine before administration of the study formulation. The rats were left on their sides for 15 minutes after administration of the study formulation. The animals were observed post administration, and at least once a day, more if deemed necessary, during the pre-treatment and treatment periods for mortality and morbidity. In particular, signs of ill health were based on body weight loss, change in appetite, and behavioral changes such as altered gait, lethargy and gross manifestations of stress.
# Three animals from each Group were sacrificed at the established time points (0.5 hour, 1.0 hour and 2.0 hour), and whole brains from the sacrificed animals were collected for analysis. 3 animals from Group 3 were also sacrificed pre-dose and analyzed. The brain samples were stored at −80° C. freezer until sample analysis. Homogenates of the brain samples were prepared and analyzed, and glutathione (GSH) levels in the brain samples were measured by LC/MS.
# [3] = orally administered; cited from earlier work
# [4] = system: blast induced mild traumatic brain injury; conditions: orally administered, cited from earlier work
# [5] = system: traumatic brain injury; conditions: more than 20 preclinical studies; cited from earlier work
# [6] = system: traumatic brain injury; conditions: cited from earlier work
Compound,concentration of isotope labeled NAC in brain tissue following administration [1],"raising glutathione levels in the brain, intranasal compared with oral NAC ([2]; intranasal 20 mg/kg vs oral (PO) 20 mg/kg, rat whole brain, FIG. 1)","increased GSH concentration in the brain, IN NAC vs IN PBS group ([2]; intranasal 20 mg/kg, 2 hour point, p=0.033, Student's T-test, planned comparison)",glutathione in the brain compared to vehicle control (IN PBS) ([2]; intranasal NAC 20 mg/kg),glutathione in the brain compared to vehicle control (IN PBS) ([2]; oral NAC 20 mg/kg),adverse effects [3],severity and resolution of sequelae of blast induced mild traumatic brain injury ([4]; 81 active duty service members),reducing the symptoms of mild-moderate traumatic brain injury in human patients [4],outcome following traumatic brain injury [5],increase of the incidence of deep venous thrombosis of the lower limbs ([6]; in vivo),number of patients with severe neurological dysfunction (GOS-E level 1-4) ([6]; large multi-center randomized controlled trial)
"CC(=O)N[C@@H](CS)C(=O)O [NAC, N-acetylcysteine]",did not detect an increase,as effective as oral NAC,statistically significant,Clear trends for increased glutathione,Clear trends for increased glutathione,"may cause nausea, vomiting and diarrhea",beneficial effects,effective,,,
erythropoietin,,,,,,,,,improves outcome,did not,did not reduce
